Measurements taken from publication PMC6278568, “Discovery of 3-Amino-2-Hydroxypropoxyisoflavone Derivatives as Potential Anti-HCV Agents” (Molecules, 2018).
“Also recorded” adds a separate entry of the source. Where two headings read alike, the source gives them in different places.

What was measured:
[1] = system: HCV replication; assay: Anti-HCV activity in Ava-5 HCV subgenomic replicon cells (firefly luciferase assay); assay type: cell-based, Hepatitis C virus; settings: Ava-5 cells; for EC50: treated for three days, firefly luciferase assay, read-out: EC50 (concentration resulting in a 50% inhibition in virus production / HCV replication); for anti-HCV activity compared with ribavirin (in words): three days
Procedure: Ava-5 cells were treated with compounds 6a–i or the positive ribavirin for three days, and then analyzed through firefly luciferase assay. The concentration that inhibited 50% HCV replication (EC50), the concentration that inhibited 50% cell growth (CC50), and the selectivity index (SI: CC50/EC50) of compounds were determined with ribavirin as a positive control.
(§1) Compounds were dissolved in DMSO at 10 mM and then diluted in culture medium.
(§2) Ava5 cells, an engineered HCV subgenomic replicon cell line, were cultured in Dulbecco′s modified Eagle′s medium (DMEM) with 10% heat-inactivated fetal bovine serum, 1% antibiotic–antimycotic, and 1% non-essential amino acids. Ava5 cells were maintained in DMEM with 1 mg mL^−1 G418 to maintain the stable expression of replicon.

[2] = Cytotoxicity in Ava-5 cells (XTT method); assay type: cell-based; settings: human, Ava5 cells (HCV subgenomic replicon cell line); Ava-5 cells, 72 h, XTT method; read-out: CC50 (concentration causing a 50% growth inhibition of uninfected ava-5 cells)
Procedure: as §1, §2
(§3) For cytotoxicity tests, run in parallel with antiviral assays, plates at an initial density of (5 × 10^3 cells/well) were treated with or without serial dilutions of test compounds. Cell viability was determined after 72 h at 37 °C in a humidified CO2 (5%) atmosphere by the (2,3-bis[2-methyloxy-4-nitro-5-sulfophenyl]-2H-tetrazolium-5-carboxanilide) (XTT) method.

[3] = system: HO-1 protein expression; assay: HO-1 protein expression in Ava-5 cells by western blotting; assay type: cell-based; settings: 10 μM, 3 days, compared with DMSO-treated cells
Procedure: To determine whether compounds 6b, 6e, 6h and 6i have impact on HO-1 protein expression in Ava-5 cells, we treated these compounds at 10 μM in Ava5 cells.
Ava5 cells were seeded in 24-well plates at a density of 5 × 10^4 cells per well overnight and treated with indicated reagent at proper concentrations for 3 days. Cells were washed with cold phosphate buffer saline (PBS) and lysed by radioimmunoprecipitation assay (RIPA) lysis buffer (50 mM Tris-HCl, pH 7.5, 150 mM NaCl, 1% Nonidet P-40, 2 mM EDTA, 1 mM EGTA, 1 mM NaVO3, 10 mM NaF, 1 mM DTT, 1 mM PMSF, 25 μg/mL aprotinin, and 25 μg/mL leupeptin) and stored at −20 °C. The protein concentration was determined by the Bradford method. Ten μg protein were separated by 10% SDS-PAGE and transferred onto a polyvinylidene difluorid (PVDF) membrane. The membrane was blocked with 5% non-fat dried milk and incubated with specific antibodies against NS5B (1:5000; Abcam Cambridge, MA, USA), glyceraldehyde-3-phosphate dehydrogenase (GAPDH) and anti-HO-1 (1:3000, Abcam Cambridge, MA, USA). Antibodies were diluted in 5% milk containing Tris-buffered saline (TBS) and 0.5% Tween. The blotting signal was developed using an ECL detection kit (PerkinElmer, Norwalk, CT, USA) and was counted by the software Quantity One (Bio-Rad, Foster, CA, USA).
Compound 6b, 6e, 6h and 6i induced HO-1 protein expression. Ava-5 cells were treated with compounds at 10 μM for 3 days. The cell lysate was subjected to western blotting with anti-HO-1 and anti-GAPDH antibodies.

[4] = system: Nrf2 / ARE transactivation; assay: ARE transactivation, p3xARE-Luc reporter in Ava-5 cells (luciferase assay); assay type: cell-based; settings: p3xARE-Luc-transfected Ava-5 cells, 1 and 10 μM, 3 days
From the text: Heme oxygenase 1 expression is regulated by the transcription factors Nrf2, Keap1, and Bach1 through the binding of ARE in its promoter region; therefore, we determined whether isoflavones-mediated HO-1 induction was dependent on ARE transactivation by treating p3xARE-Luc-transfected ava-5 cells with increasing concentrations of […] for 3 days.
Ava5 cells were transfected with the HO-1 promoter-driven luciferase plasmid, pHO-1-Luc, using the T-pro^TM transfection reagent (Ji-Feng Biotechnology Co., Ltd., Taipei, Taiwan) according to the manufacturer′s instructions. The transfected cells were treated with compounds at various concentrations for 3 days. Each transfection complex contains 0.1 μg pSEAP, a secreted alkaline phosphatase (SEAP) expression vector, for normalization luciferase activity serving as a transfection control. The luciferase activity assay was performed using the Bright-Glo Luciferase assay system (Promega) (Madison, WI, USA) according to the manufacturer′s instructions.
Figure 6 Isoflavones inhibited HCV replication by upregulating Nrf2 expression. Compound 6b, 6e, 6h and 6i stimulated ARE transactivation in Ava-5 cells. The antioxidant response reporter plasmid, p3xARE-Luc, was transfected into Ava-5 cells and then treated with isoflavones (1 and 10 μM) for 3 days. The relative induction of antioxidant activity was determined by luciferase assay. The activity of untreated Ava-5 cells was considered to be 1.

[5] = system: HCV; settings: cited from earlier work
[6] = system: HCV genotype 1b; settings: cited from earlier work
[7] = system: HCV genotype 2a; settings: cited from earlier work
[8] = system: ava-5 cells; assay: Cytotoxicity in Ava-5 cells (XTT method); assay type: cell-based; settings: Ava-5 cells, 72 h, XTT method; read-out: CC50 (concentration causing a 50% growth inhibition of uninfected ava-5 cells)
Procedure: as §1, §2, §3

Row | Compound | SI (selectivity index, CC50/EC50) [1] | EC50 ([1]; Hepatitis C virus, Ava5, 72 h) | CC50 at 72 h [2] | melting point | also measured
1 | COc1ccc(-c2coc3cc(OCC(O)CNC(C)(C)c4ccccc4)ccc3c2=O)cc1OC (stereo not shown) [Compound 6f, 3-(3,4-Dimethoxyphenyl)-7-{2-hydroxy-3-[(2-phenylpropan-2-yl)amino]propoxy}-4H-chromen-4-one] | 3.30 | 14.3 ± 0.84 µM | 47.2 ± 2.74 µM | 131 to 132 °C | –
2 | COc1ccc(-c2coc3cc(OCC(O)CNCCc4ccc(O)cc4)ccc3c2=O)cc1OC (stereo not shown) [Compound 6a, 3-(3,4-Dimethoxyphenyl)-7-{2-hydroxy-3-[(4-hydroxyphenethyl)amino]propoxy}-4H-chromen-4-one] | <3.58 | > 20 µM | 71.7 ± 4.44 µM | 117 to 118 °C | –
3 | COc1ccc(-c2coc3cc(OCC(O)CNC(C)(C)N4CCOCC4)ccc3c2=O)cc1OC (stereo not shown) [Compound 6g, 3-(3,4-Dimethoxyphenyl)-7-{2-hydroxy-3-[(2-morpholinopropan-2-yl)amino]propoxy}-4H-chromen-4-one] | <7.17 | > 20 µM | 144 ± 3.82 µM | – | –
4 | COc1ccc(-c2coc3cc(OCC(O)CNC(C)(C)Cc4ccc(F)cc4)ccc3c2=O)cc1OC (stereo not shown) [Compound 6h, 3-(3,4-Dimethoxyphenyl)-7-{3-{[1-(4-fluorophenyl)-2-methylpropan-2-yl]amino}-2-hydroxypropoxy}-4H-chromen-4-one] | 11.87 | 9.35 ± 0.97 µM | 111 ± 4.39 µM | 151 to 152 °C | anti-HCV activity compared with ribavirin (in words) [1]: more active than ribavirin; also recorded: higher anti-HCV effects than ribavirin; HO-1 protein level [3]: could induce HO-1 protein level; ARE-mediated luciferase activity [4]: increased ARE-mediated luciferase activity
5 | NC(=O)c1ncn([C@@H]2O[C@H](CO)[C@@H](O)[C@H]2O)n1 [ribavirin, reference compound] | 8.08 | 13.2 ± 1.63 µM | 106 ± 3.69 µM | – | –
6 | O=c1c(O)c(-c2ccc(O)c(O)c2)oc2cc(OCc3cccc(Cl)c3)cc(O)c12 [Compound 3, 7-[(3-chlorobenzyl)oxy]-2-(3,4-dihydroxyphenyl)-3,5-dihydroxy-4H-chromen-4-one] | – | – | – | – | EC50 ([5]; anti-HCV evaluation of quercetin analogues): 3.8 µM
7 | CCC(C)(C)NCC(O)COc1ccc2c(=O)c(-c3ccc(OC)c(OC)c3)coc2c1 (stereo not shown) [Compound 6e, 3-(3,4-Dimethoxyphenyl)-7-(2-hydroxy-3-(tert-pentylamino)propoxy)-4H-chromen-4-one] | 10.80 | 8.14 ± 1.74 µM | 87.9 ± 2.13 µM | – | anti-HCV activity compared with ribavirin (in words) [1]: more active than ribavirin; also recorded: higher anti-HCV effects than ribavirin; HO-1 protein level [3]: could induce HO-1 protein level; ARE-mediated luciferase activity [4]: increased ARE-mediated luciferase activity
8 | CCOC(=O)C1C[C@@H]2/C(=N/Nc3ccccc3)CCCC[C@@H]2N1S(=O)(=O)c1ccc(C)cc1 (stereo partly drawn) [Compound 2, (3aS,8aS,E)-ethyl-4-(2-phenylhydrazono)-1-tosyldecahydro-cyclohepta[b]pyrrole-2-carboxylate] | – | – | – | – | EC50 [6]: 1.8 µM; EC50 [7]: 4.5 µM
9 | COc1ccc(Nc2cc3oc(-c4ccco4)nc3c3ccccc23)cc1 [Compound 4, 2-(furan-2-yl)-N-(4-methoxyphenyl)naphtho[1,2-d]oxazol-5-amine] | – | – | – | – | EC50 ([5]; anti-HCV evaluation of naphtho[1,2-d]oxazole derivatives): 0.63 µM
10 | 3-{{3-{[3-(3,4-Dimethoxyphenyl)-4-oxo-4H-chromen-7-yl]oxy}-2-hydroxypropyl}amino}-2-(1H-indol-3-yl)propanoic acid [Compound 6d] | – | – | – | – | EC50 [1]: > 20 µM; CC50 [8]: 98.8 ± 3.67 µM
11 | COc1ccc(-c2coc3cc(OCC(O)CNCCc4c[nH]c5ccccc45)ccc3c2=O)cc1OC (stereo not shown) [Compound 6c, 7-{3-{[2-(1H-Indol-3-yl)ethyl]amino}-2-hydroxypropoxy}-3-(3,4-dimethoxyphenyl)-4H-chromen-4-one] | 2.26 | 16.3 ± 0.95 µM | 36.9 ± 0.46 µM | 178 to 179 °C | –
12 | COc1ccc(-c2coc3cc(OCC(O)CNCC4(N5CCOCC5)CCCCC4)ccc3c2=O)cc1OC (stereo not shown) [Compound 6i, 3-(3,4-Dimethoxyphenyl)-7-{2-hydroxy-3-{[(1-morpholinocyclohexyl)methyl]amino}propoxy}-4H-chromen-4-one] | 14.55 | 10.7 ± 0.87 µM | 156 ± 1.58 µM | 67 to 68 °C | anti-HCV activity compared with ribavirin (in words) [1]: more active than ribavirin; also recorded: higher anti-HCV effects than ribavirin; HO-1 protein level [3]: could induce HO-1 protein level; ARE-mediated luciferase activity [4]: increased ARE-mediated luciferase activity
13 | c1ccc(Cn2c(-c3ccccc3)cc3c2CCCC3)cc1 [Compound 1, 1-benzyl-2-phenyl-4,5,6,7-tetrahydro-1H-indole] | – | – | – | – | EC50 [6]: 7.9 µM; EC50 [7]: 2.6 µM
